This is an account of results in US20150320705A1, “METHOD OF INHIBITING OR TREATING AMYOTROPHIC LATERAL SCLEROSIS WITH PHENOXYALKYLCARBOXYLIC ACIDS” (priority 2014, published 2015).

In one test the test system is SOD deficient flies. In kind it is in vivo, Drosophila. The settings on record: flies with interfered SOD gene, MN-001 tested at 0.08 mM, 0.8 mM, 8 mM (DMSO), FIG. 3. The method, then: Drosophila males will be collected and keep on fly food for 24 h. Then flies will be transferred to vials containing 3-mm paper filter disks saturated with 250 μl of 1% sucrose containing 2 mM paraquat or 1% sucrose, 2 mM paraquat and the tested compound. The vials will be stored at 25° C. in the dark, and flies are enumerated after 24 h.
Three replicas for each concentration will be performed in the same day and three replicas of the assay will be performed in different days.
The experiment includes the analysis of four compound concentrations (10, 100, 250 and 1000 μM) and will evaluate 360 flies for each concentration (8 replicates×3 days with 15 flies each one). Resistance to paraquat treatment will be indicative of positive activity of the compound tested. See, FIG. 2.
MN-001 was tested at concentrations of 0.08 mM, 0.8 mM, 8 mM (DMSO).

The subject of another test is VAPB Drosophila mutants. In words: Evaluation of anti-ALS activity on VAPB Drosophila mutants (viability). It counts as in vivo. The note with it: VAPB mutant flies; for adult flies observed from seeded larvae: 3 replicates for riluzole and vitamin D (45 larvae seeded), 8 for MN-001 (120 larvae seeded).

Turning to `CCCc1c(SCCCOc2ccc(C(C)=O)c(OCCCC(=O)O)c2CCC)ccc(C(C)=O)c1O` [MN-001], the “survival (or survivorship) percentages after paraquat exposure” value in the test on SOD deficient flies is on record as “increased this survival in a dose dependent manner”. In addition, the “adult flies observed from seeded larvae” value with VAPB Drosophila mutants is 5 of 8 wells displayed adults but only 1 adult in each of them. Also, in the test on VAPB Drosophila mutants (compared with DMSO), the viability result is reported as “increase viability in a statistically significant manner”.

vitamin E: the “survival (or survivorship) percentages after paraquat exposure” value with SOD deficient flies is given as “increased this percentage”.

With `Nc1nc2ccc(OC(F)(F)F)cc2s1` [riluzole], in the test with VAPB Drosophila mutants, the “adult flies observed from seeded larvae” value is given as “No adult flies were observed”.

For the compound vitamin D, the “adult flies observed from seeded larvae” value in the test with VAPB Drosophila mutants is 1 adult was observed in one of the 3 replicates.
